Measurements taken from US8455688B2, “HDAC inhibitors” (Lixte Biotechnology, Inc., priority 2007, dated 2013).
Converted amounts (≈) assume the structure as drawn. Like-named read-outs stand apart in the source and are kept apart here.

Tests used:
T. rubrum = assay: Broth dilution antifungal susceptibility testing, T. rubrum; assay type: cell-based, Trichophyton rubrum; settings: Trichophyton rubrum, 80% inhibition, read-out: minimum inhibitory concentration (MIC)
Method: (§1) A total of 23 isolates were tested to include 3 Candida albicans, 3 Candida glabrata, 3 Cryptococcus neoformans, 3 Aspergillus fumigatus, 3 Rhizopus oryzae, 3, Fusarium solani, 3 Pseudallescheria boydii, and 2 […]. All isolates were clinical isolates submitted to the Fungus Testing Laboratory for evaluation. Antifungal susceptibility testing was accomplished according to the methods outlined in the National Committee for Clinical Laboratory Standards, M-27A2, Reference Method for Broth Dilution Antifungal Susceptibility Testing of Yeasts; Approved Standard, and M38-A “Reference Method for Broth Dilution Antifungal Susceptibility Testing of Conidium-Forming Filamentous Fungi; Approved Standard”. This includes testing in RPMI-1640 with glutamine and without bicarbonate, an inoculum size of 0.5-2.5×10^3 for yeasts or […] for moulds, and incubation at 35° C. for 24 and 48 hours. […] Drug concentrations were 0.125-64 μg/ml. A 10 mg portion of each powder was weighed out and added to 1 ml of 100% DMSO for compound 205. The resulting concentration of […] was diluted to a working concentration of 6400 μg/ml for compound 205 in 100% DMSO. All subsequent dilutions were also made using the respective diluents. Final testing concentrations ranged from 0.125-64 μg/ml. The NCCLS recommended medium RPMI-1640 (Hardy Diagnostics, Santa Monica, Calif.) was utilized as the test medium. All isolates in this study were clinical isolates received in the Fungus Testing Laboratory for standard antifungal susceptibility testing and/or identification. Isolates, which were not sent for identification, were confirmed to assure testing integrity. A total of 23 were tested to include 3 Candida albicans, 3 Candida glabrata, 3 Cryptococcus neoformans, 3 Aspergillus fumigatus, 3 Rhizopus oryzae, 3, Fusarium solani, 3 Pseudallescheria boydii, and 2 […]. Minimum inhibitory concentrations (MIC) were determined at the first 24-hour interval where growth could be determined in the drug-free control tube.

S. apiospermum = assay: Broth dilution antifungal susceptibility testing, S. apiospermum; assay type: cell-based, Pseudallescheria boydii; settings: Scedosporium apiospermum, 80% inhibition, read-out: minimum inhibitory concentration (MIC)
Method: as §1

C. neoformans = assay: Broth dilution antifungal susceptibility testing, C. neoformans; assay type: cell-based; settings: Cryptococcus neoformans, 50% reduction in turbidity, read-out: minimum inhibitory concentration (MIC)
Method: as §1

C. albicans = assay: Broth dilution antifungal susceptibility testing, C. albicans; assay type: cell-based, Candida albicans; settings: Candida albicans, 50% reduction in turbidity, read-out: minimum inhibitory concentration (MIC)
Method: as §1

R. arrhizus = assay: Broth dilution antifungal susceptibility testing, R. arrhizus; assay type: cell-based, Rhizopus oryzae; settings: Rhizopus arrhizus, 80% inhibition, read-out: minimum inhibitory concentration (MIC)
Method: as §1

F. solani = assay: Broth dilution antifungal susceptibility testing, F. solani; assay type: cell-based; settings: Fusarium solani, 80% inhibition, read-out: minimum inhibitory concentration (MIC)
Method: as §1

C. glabrata = assay: Broth dilution antifungal susceptibility testing, C. glabrata; assay type: cell-based, Candida glabrata; settings: Nakaseomyces glabratus, 50% reduction in turbidity, read-out: minimum inhibitory concentration (MIC)
Method: as §1

A. fumigatus = assay: Broth dilution antifungal susceptibility testing, A. fumigatus; assay type: cell-based, Aspergillus fumigatus; settings: Aspergillus fumigatus, 80% inhibition, read-out: minimum inhibitory concentration (MIC)
Method: as §1

[1] = 24 h, isolate 07-1743, 24 hours
[2] = 24 h, isolate 07-2055, 24 hours
[3] = 48 h, isolate 07-1743, 48 hours
[4] = 48 h, isolate 07-2055, 48 hours
[5] = 24 h, isolate 07-1333, 24 hours
[6] = 24 h, isolate 07-1502, 24 hours
[7] = 24 h, isolate 07-1601, 24 hours
[8] = 48 h, isolate 07-1333, 48 hours
[9] = 48 h, isolate 07-1502, 48 hours
[10] = 48 h, isolate 07-1601, 48 hours
[11] = 24 h, isolate 07-2665, 24 hours
[12] = 24 h, isolate 07-2737, 24 hours
[13] = 24 h, isolate 07-2829, 24 hours
[14] = 48 h, isolate 07-2665, 48 hours
[15] = 48 h, isolate 07-2737, 48 hours
[16] = 48 h, isolate 07-2829, 48 hours
[17] = 24 h, isolate 07-3006, 24 hours
[18] = 24 h, isolate 07-3011, 24 hours
[19] = 24 h, isolate 07-3012, 24 hours
[20] = 48 h, isolate 07-3006, 48 hours
[21] = 48 h, isolate 07-3011, 48 hours
[22] = 48 h, isolate 07-3012, 48 hours
[23] = 24 h, isolate 07-1870, 24 hours
[24] = 24 h, isolate 07-2044, 24 hours
[25] = 24 h, isolate 07-2078, 24 hours
[26] = 48 h, isolate 07-1870, 48 hours
[27] = 48 h, isolate 07-2044, 48 hours
[28] = 48 h, isolate 07-2078, 48 hours
[29] = 24 h, isolate 07-1399, 24 hours
[30] = 24 h, isolate 07-1755, 24 hours
[31] = 24 h, isolate 07-1867, 24 hours
[32] = 48 h, isolate 07-1399, 48 hours
[33] = 48 h, isolate 07-1755, 48 hours
[34] = 48 h, isolate 07-1867, 48 hours
[35] = 24 h, isolate 07-2964, 24 hours
[36] = 24 h, isolate 07-2965, 24 hours
[37] = 24 h, isolate 07-3013, 24 hours
[38] = 48 h, isolate 07-2964, 48 hours
[39] = 48 h, isolate 07-2965, 48 hours
[40] = 48 h, isolate 07-3013, 48 hours
[41] = 24 h, isolate 06-4126, 24 hours
[42] = 24 h, isolate 07-2039, 24 hours
[43] = 48 h, isolate 06-4126, 48 hours
[44] = 48 h, isolate 07-2039, 48 hours

Compound: Nc1ccc(NC(=O)CCCCCNC(=O)c2ccccc2S)cc1 [Compound 209, 2-Mercapto-N-[5-(4-Aminophenylcarbamoyl)-pentyl]benzamide]
- MIC (T. rubrum; [1]): 8 µg/mL (≈ 22.4 µM)
- MIC (T. rubrum; [2]): 8 µg/mL (≈ 22.4 µM)
- MIC (T. rubrum; [3]): 8 µg/mL (≈ 22.4 µM)
- MIC (T. rubrum; [4]): 8 µg/mL (≈ 22.4 µM)
- MIC (S. apiospermum; [5]): 64 µg/mL (≈ 179 µM)
- MIC (S. apiospermum; [6]): 32 µg/mL (≈ 89.5 µM)
- MIC (S. apiospermum; [7]): 8 µg/mL (≈ 22.4 µM)
- MIC (S. apiospermum; [8]): > 64 µg/mL
- MIC (S. apiospermum; [9]): > 64 µg/mL
- MIC (S. apiospermum; [10]): > 64 µg/mL
- MIC (C. neoformans; [11]): 32 µg/mL (≈ 89.5 µM)
- MIC (C. neoformans; [12]): 8 µg/mL (≈ 22.4 µM)
- MIC (C. neoformans; [13]): 16 µg/mL (≈ 44.8 µM)
- MIC (C. neoformans; [14]): 32 µg/mL (≈ 89.5 µM)
- MIC (C. neoformans; [15]): 16 µg/mL (≈ 44.8 µM)
- MIC (C. neoformans; [16]): 16 µg/mL (≈ 44.8 µM)
- MIC (C. albicans; [17]): 2 µg/mL (≈ 5.59 µM)
- MIC (C. albicans; [18]): 2 µg/mL (≈ 5.59 µM)
- MIC (C. albicans; [19]): 2 µg/mL (≈ 5.59 µM)
- MIC (C. albicans; [20]): 32 µg/mL (≈ 89.5 µM)
- MIC (C. albicans; [21]): 32 µg/mL (≈ 89.5 µM)
- MIC (C. albicans; [22]): 32 µg/mL (≈ 89.5 µM)
- MIC (R. arrhizus; [23]): 2 µg/mL (≈ 5.59 µM)
- MIC (R. arrhizus; [24]): 2 µg/mL (≈ 5.59 µM)
- MIC (R. arrhizus; [25]): > 64 µg/mL
- MIC (R. arrhizus; [26]): > 64 µg/mL
- MIC (R. arrhizus; [27]): > 64 µg/mL
- MIC (R. arrhizus; [28]): > 64 µg/mL
- MIC (F. solani; [29]): > 64 µg/mL
- MIC (F. solani; [30]): > 64 µg/mL
- MIC (F. solani; [31]): > 64 µg/mL
- MIC (F. solani; [32]): > 64 µg/mL
- MIC (F. solani; [33]): > 64 µg/mL
- MIC (F. solani; [34]): > 64 µg/mL
- MIC (C. glabrata; [35]): 2 µg/mL (≈ 5.59 µM)
- MIC (C. glabrata; [36]): 2 µg/mL (≈ 5.59 µM)
- MIC (C. glabrata; [37]): 2 µg/mL (≈ 5.59 µM)
- MIC (C. glabrata; [38]): 32 µg/mL (≈ 89.5 µM)
- MIC (C. glabrata; [39]): 32 µg/mL (≈ 89.5 µM)
- MIC (C. glabrata; [40]): 32 µg/mL (≈ 89.5 µM)
- MIC (A. fumigatus; 24 h, isolate 05-388, 24 hours): 16 µg/mL (≈ 44.8 µM)
- MIC (A. fumigatus; [41]): 16 µg/mL (≈ 44.8 µM)
- MIC (A. fumigatus; [42]): 32 µg/mL (≈ 89.5 µM)
- MIC (A. fumigatus; 48 h, isolate 05-388, 48 hours): > 64 µg/mL
- MIC (A. fumigatus; [43]): > 64 µg/mL
- MIC (A. fumigatus; [44]): > 64 µg/mL

Compound: O=C(CCCCCNC(=O)c1cc(Cl)ccc1S)Nc1ccccc1 [Compound 210]
- MIC (T. rubrum; [1]): 0.25 µg/mL (≈ 0.663 µM)
- MIC (T. rubrum; [2]): 0.25 µg/mL (≈ 0.663 µM)
- MIC (T. rubrum; [3]): 0.5 µg/mL (≈ 1.33 µM)
- MIC (T. rubrum; [4]): 0.5 µg/mL (≈ 1.33 µM)
- MIC (S. apiospermum; [5]): 1 µg/mL (≈ 2.65 µM)
- MIC (S. apiospermum; [6]): 1 µg/mL (≈ 2.65 µM)
- MIC (S. apiospermum; [7]): 1 µg/mL (≈ 2.65 µM)
- MIC (S. apiospermum; [8]): > 64 µg/mL
- MIC (S. apiospermum; [9]): > 64 µg/mL
- MIC (S. apiospermum; [10]): > 64 µg/mL
- MIC (C. neoformans; [11]): > 64 µg/mL
- MIC (C. neoformans; [12]): > 64 µg/mL
- MIC (C. neoformans; [13]): > 64 µg/mL
- MIC (C. neoformans; [14]): > 64 µg/mL
- MIC (C. neoformans; [15]): > 64 µg/mL
- MIC (C. neoformans; [16]): > 64 µg/mL
- MIC (C. albicans; [17]): > 64 µg/mL
- MIC (C. albicans; [18]): > 64 µg/mL
- MIC (C. albicans; [19]): > 64 µg/mL
- MIC (C. albicans; [20]): > 64 µg/mL
- MIC (C. albicans; [21]): > 64 µg/mL
- MIC (C. albicans; [22]): > 64 µg/mL
- MIC (R. arrhizus; [23]): 4 µg/mL (≈ 10.6 µM)
- MIC (R. arrhizus; [24]): 4 µg/mL (≈ 10.6 µM)
- MIC (R. arrhizus; [25]): > 64 µg/mL
- MIC (R. arrhizus; [26]): > 64 µg/mL
- MIC (R. arrhizus; [27]): > 64 µg/mL
- MIC (R. arrhizus; [28]): > 64 µg/mL
- MIC (F. solani; [29]): 1 µg/mL (≈ 2.65 µM)
- MIC (F. solani; [30]): 1 µg/mL (≈ 2.65 µM)
- MIC (F. solani; [31]): 2 µg/mL (≈ 5.31 µM)
- MIC (F. solani; [32]): > 64 µg/mL
- MIC (F. solani; [33]): > 64 µg/mL
- MIC (F. solani; [34]): > 64 µg/mL
- MIC (C. glabrata; [35]): > 64 µg/mL
- MIC (C. glabrata; [36]): > 64 µg/mL
- MIC (C. glabrata; [37]): > 64 µg/mL
- MIC (C. glabrata; [38]): > 64 µg/mL
- MIC (C. glabrata; [39]): > 64 µg/mL
- MIC (C. glabrata; [40]): > 64 µg/mL
- MIC (A. fumigatus; 24 h, isolate 05-388, 24 hours): 2 µg/mL (≈ 5.31 µM)
- MIC (A. fumigatus; [41]): 2 µg/mL (≈ 5.31 µM)
- MIC (A. fumigatus; [42]): 2 µg/mL (≈ 5.31 µM)
- MIC (A. fumigatus; 48 h, isolate 05-388, 48 hours): > 64 µg/mL
- MIC (A. fumigatus; [43]): > 64 µg/mL
- MIC (A. fumigatus; [44]): > 64 µg/mL
